The values that follow come from patent US9173869B2, “Mediators of hedgehog signaling pathways, compositions and uses related thereto” (CURIS, INC., priority 1999, dated 2015).

pIC50: −log10 of the molar value.

The first test deals with gli-1 mRNA in ptc-null cells. The test is described as follows: Ptc-null assay (RT-PCR / quantitative real-time PCR of gli-1 mRNA). Type of test: cell-based, mouse. Particulars: ptc-null cells cultured 3 days, 1 μM of test compound, compared with vehicle. The procedure:
Ptc-null cells were cultured for 3 days in the presence of vehicle; jervine, a known Patched pathway antagonist (i) used here as a positive control; or 1 μM of a test compound. Total ribonucleic acid (RNA) was isolated from the cells and used for reverse transcriptase-polymerase chain reaction (RT-PCR). […] The gli-1 and actin mRNA samples were then loaded on 1.5% agarose gel and were detected by staining with ethidium bromide. The same samples were analyzed by the quantitative real-time polymerase chain reaction method to quantify the levels of gli-1 mRNA.
(Real-time PCR tracks product formation cycle by cycle.)
Turning to `CCCN(CCC(=O)NC1CCCc2ccccc21)C(=O)c1cc(OC)cc(OC)c1` (stereo not shown) [Compound 47], the “expression of gli-1” value was “no significant decrease”.
Still for that read-out and setting: the result for `CCC(C)N(CCC(=O)NC1CCCc2ccccc21)C(=O)c1cccc2ccccc12` (stereo not shown) [Compound 48] reads “no significant decrease”; that for `CCC(C)N(CCC(=O)NC1CCCc2ccccc21)C(=O)COc1ccc(Cl)cc1` (stereo not shown) [Compound 49], “no significant decrease”.

Still in this test, the particulars now being: ptc-null cells cultured 3 days, positive control, compared with vehicle.
With `CC1=C2C(=O)[C@H]3[C@@H](CC=C4C[C@@H](O)CC[C@@]43C)[C@@H]2CC[C@]12O[C@@H]1C[C@H](C)CN[C@H]1[C@H]2C` [jervine, reference compound], the “expression of gli-1 mRNA” value is listed as “significantly decreased”.

For the next test, the system named is Hedgehog pathway (Shh-induced Gli-transcription activity) in 10T1/2(s12) cells. Briefly: Gli-Luc assay (high-throughput screening, Hedgehog-responsive luciferase reporter). Type of test: cell-based. Particulars: Gli-Luc response, OCT-SHH 0.3 μg/ml, about 24 h. The procedure:
Compounds to be tested are dissolved in DMSO to a concentration of 10 mM, and stored at −20° C. To activate the Hedgehog pathway in the assay cells, an octylated (lipid-modified) form of the N-terminal fragment of the Sonic Hedgehog protein (OCT-SHH) is used. This N-terminal SHH fragment is produced bacterially. The octylation involves reaction of the N-terminal fragment, via its amino-terminal cysteine moiety, with octyl maleimide.
Compounds may be tested in the “Gli-Luc” assay below, using the cell line 10T(s12), wherein the cells contain a Hedgehog-responsive reporter construct utilizing Luciferase as the reporter gene. In this way, Hedgehog pathway signaling activity can be measured via the Gli-Luc response.
10t1/2(s12) cells are plated in a 96-well micro-titer plate (MTP) at 20,000 cells/well in full medium [DMEM with 10% FBS]. Then plates are placed in the incubator for incubation overnight (O/N), at 37° C. and 5% CO2. After 24 h, the medium is replaced with Luciferase-assay medium (DMEM with 0.5% FBS). Compounds are thawed and diluted in assay medium at 3:1000 (about 300-fold) resulting in a starting concentration of about 30 μM.
Subsequently, 150 μl of each 30 μM sample is added to the first wells (in triplicate). The MTP samples are then diluted at 3-fold dilutions to a total of seven wells, ultimately resulting in a regiment of seven dilutions in triplicate, for each compound. Next, the protein ligand OCT-SHH is diluted in Luciferase-assay medium and added to each well at a final concentration of 0.3 μg/ml. Plates are then returned to the incubator for further incubation O/N, at 37° C. and 5% CO2. After about 24 h, plates are removed from the incubator and the medium is aspirated/discarded. Wells are washed once with assay buffer [PBS+1 mM Mg^2+ and 1 mM Ca^2+]. Then 50 μl of assay buffer is added to each well. The Luciferase assay reagent is prepared as described by the vendor (LucLite kit from Packard), and 50 μl is added to each well. Plates are incubated at room temperature (RT) for about 30 minutes after which the signals are read, again at RT, on a Topcount (Packard).
As usually defined, the pIC50 is the IC50 on a negative log10 scale, so that one unit is a factor of ten. Higher therefore signals a low IC50. Regarding `O=C(NCc1nc2ccccc2c(=O)n1-c1ccc(F)cc1)Nc1ccc(Cl)c(C(F)(F)F)c1` [Compound 5, 1-(4-Chloro-3-trifluoromethyl-phenyl)-3-[3-(4-fluoro-phenyl)-4-oxo-3,4-dihydro-quinazolin-2-ylmethyl]-urea], the pIC50 is above 7.00.
The same measure, in the same setting: the result for `O=C(NCc1nc2ccccc2c(=O)n1-c1ccc(F)cc1)Nc1cc(Cl)nc(Cl)c1` [Compound 6, 1-(2,6-Dichloro-pyridin-4-yl)-3-[3-(4-fluoro-phenyl)-4-oxo-3,4-dihydro-quinazolin-2-ylmethyl]-urea] reads above 6.30; that for `CC(c1nc2ccccc2c(=O)n1-c1ccc(F)cc1)N(Cc1ccco1)C(=O)Nc1cccc(F)c1` (stereo not shown) [Compound 31], above 5.00.
Still for that read-out and setting: with `CC(c1nc2ccccc2c(=O)n1-c1ccc(F)cc1)N(C)C(=O)Nc1ccc([N+](=O)[O-])c(C(F)(F)F)c1` (stereo not shown) [Compound 32] the figure was above 5.30; with `CCCN(C(=O)Nc1cccc(Cl)c1)C(C)c1nc2ccccc2c(=O)n1-c1ccc(F)cc1` (stereo not shown) [Compound 34], above 5.30; with `CCCN(C(=O)Nc1cccc(C(F)(F)F)c1)C(C)c1nc2ccccc2c(=O)n1-c1ccc(F)cc1` (stereo not shown) [Compound 36], above 5.30.
Same read-out and setting: the result for `CCCN(C(=O)Nc1cccc(OC)c1)C(C)c1nc2ccccc2c(=O)n1-c1ccc(F)cc1` (stereo not shown) [Compound 38] reads above 5.30; that for `CCC(c1nc2ccccc2c(=O)n1-c1ccc(C)cc1)N(CCc1ccccc1)C(=O)CCCCF` (stereo not shown) [Compound 39], above 5.30.
`CCCCc1ccc(C(=O)N(Cc2ccccc2)C(CC)c2nc3ccccc3c(=O)n2-c2ccc(C)cc2)cc1` (stereo not shown) [Compound 40] had a pIC50 above 5.00.
On the same count and under the same terms, with `CCCCCCCCC(=O)N(CCCCC)C(C)c1nc2ccccc2c(=O)n1-c1ccccc1` (stereo not shown) [Compound 41] the figure was above 5.00; with `CCC(=O)N1CCN(C(CC)c2nc3ccccc3c(=O)n2-c2ccc(C)cc2)C(C)C1` (stereo not shown) [Compound 42], above 5.30.
The molecule `CC(c1nc2ccccc2c(=O)n1-c1ccc(F)cc1)N1CCN(C(=O)Nc2ccc(Cl)c(Cl)c2)CC1` (stereo not shown) [Compound 43] had a pIC50 above 5.00.
On the same count and under the same terms, with `O=C(NCc1nc2ccccc2c(=O)n1-c1ccc(F)cc1)Nc1cccc(C(F)(F)F)c1` [Compound 44] the figure was above 6.00; with `CCC(c1nc2ccccc2c(=O)[nH]1)N1CCN(C(=O)Nc2ccc(Cl)c(Cl)c2)C(C)C1` (stereo not shown) [Compound 45], above 5.30; with `CCC(c1nc2ccccc2c(=O)[nH]1)N1CCN(C(=O)c2ccc(-c3ccccc3)cc2)C(C)C1` (stereo not shown) [Compound 46], above 6.30.
In turn, `CCCN(CCC(=O)NC1CCCc2ccccc21)C(=O)c1cc(OC)cc(OC)c1` (stereo not shown) [Compound 47] had a pIC50 above 5.30.
Same read-out and setting: with `CCC(C)N(CCC(=O)NC1CCCc2ccccc21)C(=O)c1cccc2ccccc12` (stereo not shown) [Compound 48] the figure was above 6.30; with `CCC(C)N(CCC(=O)NC1CCCc2ccccc21)C(=O)COc1ccc(Cl)cc1` (stereo not shown) [Compound 49], above 6.00.
On the same count and under the same terms, with `O=C(Cc1cccc(C(F)(F)F)c1)NCCc1nc2ccccc2c(=O)n1-c1ccc(F)cc1` [Compound 50] the figure was above 6.00.
For the molecule `CC(c1nc2ccccc2c(=O)n1-c1ccc(F)cc1)N(C)C(=O)Nc1cccc(C#N)c1` (stereo not shown) [Compound 51], the negative-log IC50 (pIC50) was above 5.30.
Same read-out and setting: the result for `CC(c1nc2ccccc2c(=O)n1-c1ccc(F)cc1)N(C)C(=O)Nc1cccc(SC(F)(F)F)c1` (stereo not shown) [Compound 52] reads above 6.00; that for `CC(c1nc2ccccc2c(=O)n1-c1ccc(F)cc1)N(C)C(=O)Nc1ccc(Cl)c(Cl)c1` (stereo not shown) [Compound 53], above 6.00; that for `CC(c1nc2ccccc2c(=O)n1-c1ccc(F)cc1)N(C)C(=O)Nc1ccc(C(F)(F)F)cc1` (stereo not shown) [Compound 54], above 5.30.
On the same count and under the same terms, with `CC(c1nc2ccccc2c(=O)n1-c1ccc(F)cc1)N(C)C(=O)Nc1cccc(F)c1` (stereo not shown) [Compound 55] the figure was above 5.30.
Same read-out and setting: the result for `CC(c1nc2ccccc2c(=O)n1-c1ccc(F)cc1)N(C)C(=O)Nc1ccc(-c2ccccc2)cc1` (stereo not shown) [Compound 56] reads above 5.00; that for `CC(C)c1cccc(NC(=O)N(C)C(C)c2nc3ccccc3c(=O)n2-c2ccc(F)cc2)c1` (stereo not shown) [Compound 57], above 5.00.
In turn, `CC(c1nc2ccccc2c(=O)n1-c1ccc(F)cc1)N(C)C(=O)Nc1cc(Cl)nc(Cl)c1` (stereo not shown) [Compound 58] gave a pIC50 above 5.30.
On the same count and under the same terms, with `Cc1c(NC(=O)N(C)C(C)c2nc3ccccc3c(=O)n2-c2ccc(F)cc2)cccc1[N+](=O)[O-]` (stereo not shown) [Compound 59] the figure was above 5.30; with `CC(c1nc2ccccc2c(=O)n1-c1ccc(F)cc1)N(C)C(=O)Nc1ccc(SC(F)(F)F)cc1` (stereo not shown) [Compound 60], above 5.30; with `CC(c1nc2ccccc2c(=O)n1-c1ccc(F)cc1)N(C)C(=O)Nc1ccc(Cl)c(C(F)(F)F)c1` (stereo not shown) [Compound 61], above 6.00.
The same measure, in the same setting: the result for `CC(c1nc2ccccc2c(=O)n1-c1ccc(F)cc1)N(C)C(=O)Nc1ccc([N+](=O)[O-])c(Cl)c1` (stereo not shown) [Compound 62] reads above 6.00; that for `CCOC(=O)c1ccccc1NC(=O)N(C)C(C)c1nc2ccccc2c(=O)n1-c1ccc(F)cc1` (stereo not shown) [Compound 63], above 5.00; that for `CC(c1nc2ccccc2c(=O)n1-c1ccc(F)cc1)N(C)C(=O)Nc1ccc([N+](=O)[O-])cc1Cl` (stereo not shown) [Compound 64], above 5.00.
Turning to `CCOOC(=O)c1cccc(NC(=O)N(C)C(C)c2nc3ccccc3c(=O)n2-c2ccc(F)cc2)c1` (stereo not shown) [Compound 65], the pIC50 is above 5.00.
Turning to `CC(c1nc2ccccc2c(=O)n1-c1ccc(F)cc1)N(C)C(=O)Nc1ccc(Cl)cc1[N+](=O)[O-]` (stereo not shown) [Compound 66], the pIC50 is above 5.00.
On the same count and under the same terms, with `Cc1c(NC(=O)NCc2nc3ccccc3c(=O)n2-c2ccc(F)cc2)cccc1SC(F)(F)F` [Compound 67] the figure was above 5.30; with `O=C(NCc1nc2ccccc2c(=O)n1-c1ccc(F)cc1)Nc1ccc(Cl)c(Cl)c1` [Compound 68], above 6.00; with `O=C(NCc1nc2ccccc2c(=O)n1-c1ccc(F)cc1)Nc1ccc(Cl)c([N+](=O)[O-])c1` [Compound 69], above 6.30.
The same measure, in the same setting: the result for `COc1cccc(NC(=O)NCc2nc3ccccc3c(=O)n2-c2ccc(F)cc2)c1C` [Compound 71] reads above 5.00; that for `CC(NC(=O)Nc1cccc(C(F)(F)F)c1)c1nc2ccccc2c(=O)n1-c1ccc(F)cc1` (stereo not shown) [Compound 73], above 5.30.
On the same count and under the same terms, with `O=C(NCCCc1nc2ccccc2c(=O)n1-c1ccc(F)cc1)Nc1cccc(C(F)(F)F)c1` [Compound 74] the figure was above 5.30; with `O=C(Nc1cccc(C(F)(F)F)c1)NC(c1nc2ccccc2c(=O)n1-c1ccc(F)cc1)C1CC1` (stereo not shown) [Compound 75], above 5.30.
